What was measured:
Type in all cases: in vivo
[1] = Pharmacokinetics of AG10 tablets and capsule given orally to male beagle dogs, Study No. 3; details: for Tmax / Cmax / AUC(0-t): male, beagle, dog, plasma, po; for Tmax: dogs, read-out: time to maximal concentration (T max); for Cmax / AUC(0-t): male dogs; for AUC(0-t): read-out: AUC0-24
Procedure: AG10 was administered orally to 4 male beagle dogs each as a 50 mg tablet, 200 mg tablet, and a 200 mg capsule (No. 3). Blood samples were collected at pre-dose and approximately 0.25, 0.5, 1, 2, 4, 8, 24, 48, 72 and 96 hours post-dose. Plasma samples were assayed for AG10 by LC-MS/MS.

[2] = Pharmacokinetics of AG10 in dogs, oral gavage, Study No. 1; details: both sexes, dog, plasma
Procedure: Pharmacokinetics of AG10 were determined when administered once daily to dogs via oral gavage at 20, 60, and 200 mg/kg for 3 days (Study No. 1). Each group consisted of two animals/sex/group. Blood samples were collected from each animal on Day 1 at pre-dose, 0.25, 0.5, 1, 2, 4, 8, 12 and 24 hours post-dose, Day 3 at pre-dose, 0.25, 0.5, 1, 2, 4, 8, 12, 24, 48 and 72 hr post-dose. Plasma samples were assayed for AG10 by LC-MS/MS. In general, no sex differences in AG10 mean Cmax and AUC0-24 values were observed; therefore, results for the 20 mg/kg dose group are presented as combined sex values in Table 1 below.

[3] = Pharmacokinetics of AG10 after oral administration in beagle dogs, Study No. 2; details: both sexes, dog, plasma, 20 mg/kg; for Cmax / AUC(0-t): 20 mg/kg oral, sex MF; for AUC(0-t): read-out: AUC0-24; for Tmax: read-out: time to maximal concentration (T max)
Procedure: The pharmacokinetics of AG10 were also determined following oral administration in non-naïve male and female beagle dogs (Study No. 2). The study design included three treatment groups (n=2/sex/group). Groups 1 and 2 received 5 mg/kg and 20 mg/kg AG10 in 0.5% methylcellulose (MC) formulations respectively. Group 3 animals received 20 mg/kg AG10 in gelatin capsule form. Blood samples were collected at pre-dose and approximately 2, 4, 6, 8, 12, and 24 hours post-dose. Plasma samples were assayed for AG10 by LC-MS/MS. Plasma exposures (AUC0-24) of AG10 in dogs administered 20 mg/kg AG10 as a suspension in 0.5% methylcellulose were similar to those obtained in Study No. 1 (Table 1). Plasma exposures of AG10 were also similar in dogs which were administered the same dose of AG10 either as a suspension in 0.5% methylcellulose or as a gelatin capsule without any excipients.

[4] = gelatin capsule without excipients

Cc1n[nH]c(C)c1CCCOc1cc(C(=O)O)ccc1F [AG10, 3-(3-(3,5-dimethyl-1H-pyrazol-4-yl)propoxy)-4-fluorobenzoic acid]
Tmax ([1]; 50 mg, 50 mg tablets): 0.5 h
Cmax ([1]; 50 mg, tablet 50 mg oral): 4660 ng/mL
AUC(0-t) ([1]; 50 mg, tablet 50 mg oral): 41500 ng·h/mL
Tmax ([1]; 200 mg, 200 mg capsules with excipient): 1.38 ± 0.75 h
Tmax ([1]; 200 mg, 200 mg tablets): 1 h
Cmax ([1]; 200 mg, capsule 200 mg oral): 9330 ng/mL
AUC(0-t) ([1]; 200 mg, capsule 200 mg oral): 65700 ng·h/mL
Cmax ([1]; 200 mg, tablet 200 mg oral): 13000 ng/mL
AUC(0-t) ([1]; 200 mg, tablet 200 mg oral): 88000 ng·h/mL
Cmax, 200 mg tablets compared with 200 mg capsules ([1]; unpaired t-test, P value 0.0788): not significantly different
AUC0-inf, 200 mg tablets compared with 200 mg capsules ([1]; unpaired t-test, P value 0.0995): not significantly different
Cmax ([2]; 0.5% MC formulation, 20 mg/kg oral gavage, sex MF combined): 16100 ng/mL
AUC(0-t) ([2]; 0.5% MC formulation, 20 mg/kg oral gavage, sex MF combined, read-out: AUC0-24): 69100 ng·h/mL
Tmax ([2]; po, 20 mg/kg, methylcellulose formulation, read-out: time to maximal concentration (T max)): 0.44 ± 0.38 h
Cmax ([3]; 0.5% MC formulation): 8100 ng/mL
AUC(0-t) ([3]; 0.5% MC formulation): 71200 ng·h/mL
Tmax ([3]; capsule formulated without excipients): 2 h
Cmax [3, 4]: 10300 ng/mL
AUC(0-t) [3, 4]: 89300 ng·h/mL
Tmax ([3]; methylcellulose formulation): 2.5 ± 1 h
